# Results: patent US12213483B1, “Herbicidal compositions comprising trifludimoxazin” (BASF SE, priority 2024, dated 2025)
# How the values were obtained:
# Type in all cases: in vivo
# [1] = tested on: Erigeron canadensis (ERICA); assay: Post-emergence application in greenhouse trials, ERICA; conditions: 20 DAT, GS 19
# Procedure: (§1) In the examples below, using the method of S. R. Colby (1967) “Calculating synergistic and antagonistic responses of herbicide combinations”, Weeds 15, p. 22ff., the value E, which is expected if the activity of the individual active compounds is only additive, was calculated: E=X+Y−(X·Y/100) • where • X=percent activity using active herbicide A at an application rate a; • Y=percent activity using active trifludimoxazin at an application rate b; • E=expected activity (in %) by A+B at application rates a+b.
# (§2) If the value found experimentally is higher than the value E calculated according to Colby, a synergistic effect is present.
# (§3) The culture containers used were plastic pots containing loamy sand with approximately 3.0% of humus as substrate. The seeds of the test plants were sown separately for each species.
# For the post-emergence treatment, the test plants were grown to a plant height of from 3 to 15 cm, depending on the plant habit, and only then treated with the active compounds which had been suspended or emulsified in water. To this end, the test plants were either sown directly, and grown in the same containers, or they were first grown separately as seedlings and transplanted into the test containers a few days prior to treatment. […]
# The test period extended over 2 to 4 weeks. During this time, the plants were tended and their response to the individual treatments was evaluated. […]
# Kochia scoparia (KCHSC) [2] = assay: Post-emergence application in field trials, KCHSC; conditions: 28 DAT; water volume 100 l/ha; pre plant burndown; growth stage 11-16; height 1-9 cm; 18 g ai/ha
# Procedure: as §1, §2
# (§4) On field test sites, natural weed infestation or seeded weeds were treated post-emergence of the weeds.
# (§5) In the field trials, the weedy plants were treated as indicated below.
# (§6) Herbicide A-1 (342 g/I), trifludimoxazin (500 g/I) and saflufenacil (342 g/I) were, together with addition of 1% MSO (methylated seed oil) as adjuvant (unless indicated otherwise), formulated in water as distribution medium as indicated and sprayed with commercial flat fan nozzles.
# (§7) In the following experiments, the herbicidal activity for the individual herbicidal compositions (solo and mixture applications) was assessed at the indicated days after treatment (DAT). […]
# [3] = tested on: Commelina benghalensis (COMBE); assay: Post-emergence application in greenhouse trials, COMBE
# Procedure: as §1, §2, §3
# (§8) For the post-emergence treatment, the test plants were grown to a plant height of from 3 to 15 cm, depending on the plant habit, and only then treated with the active compounds which had been suspended or emulsified in water. To this end, the test plants were either sown directly, and grown in the same containers, or they were first grown separately as seedlings and transplanted into the test containers a few days prior to treatment.
# (§9) Depending on the species, the plants were kept at 10-25° C. and 20-35° C., respectively.
# (§10) The test period extended over 2 to 4 weeks. During this time, the plants were tended and their response to the individual treatments was evaluated.
# (§11) Evaluation was carried out using a scale from 0 to 100. 100 means no emergence of the plants, or complete destruction of at least the above-ground parts, and 0 means no damage or normal course of growth. A good herbicidal activity is given at values of at least 70, and very good herbicidal activity is given at values of at least 85.
# (§12) In the greenhouse trials, unless indicated otherwise, herbicide A, trifludimoxazin and saflufenacil were formulated (50 g/I) and applied with addition of 1% MSO (methylated seed oil) as adjuvant. The solvent used was water (200 I/ha).
# Cyperus iria (CYPIR) = assay: Post-emergence application in field trials, CYPIR; conditions: 3 DAT, height 3-5 cm
# Procedure: as §1, §2, §4, §5, §6
# (§13) In the following experiments, the herbicidal activity for the individual herbicidal compositions (solo and mixture applications) was assessed at the indicated days after treatment (DAT). The assessments for the damage on undesired weeds caused by the composition was carried out using a scale from 0 to 100%, compared to the untreated control plants. Here, 0 means no damage and 100 means complete destruction of the plants.
# (§14) Herbicide A-1 (100 g/l) and trifludimoxazin (500 g/l) were, together with addition of 1% MSO (methylated seed oil) as adjuvant (unless indicated otherwise), formulated in water as distribution medium as indicated and sprayed with commercial flat fan nozzles.
# [4] = tested on: Lolium multiflorum (LOLMU); assay: Post-emergence application in greenhouse trials, LOLMU; conditions: 20 DAT
# Procedure: as §1, §2, §3, §8, §9, §10, §11, §12
# Setaria viridis (SETVI) = assay: Post-emergence application in greenhouse trials, SETVI
# Procedure: as §1, §2, §3, §8, §9, §10, §11, §12
# Kochia scoparia (KCHSC) [5] = assay: Post-emergence application in greenhouse trials, KCHSC
# Procedure: as §1, §2, §3, §8, §9, §10, §11, §12
# Sorghum bicolor (SORVU) = assay: Post-emergence application in field trials, SORVU; conditions: 22 DAT, water volume 200 l/ha, growth stage 21-31, volunteer crop, non PPO-i herbicide tolerant
# Procedure: as §1, §2, §4, §5, §6, §7
# [6] = tested on: Erigeron canadensis (ERICA); assay: Post-emergence application in field trials, ERICA; conditions: 22 DAT; water volume 200 l/ha; growth stage 15-20; 25 g ai/ha
# Procedure: as §1, §2, §4, §5, §6, §7
# [7] = tested on: Senna obtusifolia (CASOB); assay: Post-emergence application in field trials, CASOB; conditions: 43 DAT, water volume 200 l/ha, growth stage 12-35, height 5-20 cm
# Procedure: as §1, §2, §4, §5, §6, §13, §14
# [8] = 20 DAT, growth stage 21, 0.3 g ai/ha
# [9] = water volume 200 l/ha, growth stage 13-14, 25 g ai/ha
# [10] = 20 DAT, growth stage 14, 0.3 g ai/ha
# [11] = 20 DAT, growth stage 33, 0.3 g ai/ha
# [12] = 20 DAT, growth stage 33, 0.5 g ai/ha
structure (smiles),measurement,setting,value
"CCOC(=O)COc1ccccc1Oc1nc(-n2c(=O)cc(C(F)(F)F)n(C)c2=O)c(F)cc1Cl [A-1, ethyl 2-[2-[[3-chloro-5-fluoro-6-[3-methyl-2,6-dioxo-4-(trifluoromethyl)pyrimidin-1-yl]-2-pyridyl]oxy]phenoxy]acetate]",% Herbicidal activity,[1]; A-1 0.2 g ai/ha,10%
same,% Herbicidal activity,Kochia scoparia (KCHSC) [2],57%
same,% Herbicidal activity,"[3]; 6 DAT, GS 21, A-1 0.3 g ai/ha",65%
same,% Herbicidal activity,"[3]; 20 DAT, GS 21, A-1 0.3 g ai/ha",45%
same,% Herbicidal activity,[3]; [8],45%
same,% Herbicidal activity,Cyperus iria (CYPIR); [9],23%
same,% Herbicidal activity,"Cyperus iria (CYPIR); water volume 300 l/ha, burndown in fruit plantation (citrus), GS 13-14, A-1 25 g ai/ha",23%
same,% Herbicidal activity,"[4]; GS 13, A-1 0.3 g ai/ha",10%
same,% Herbicidal activity,"[4]; growth stage 13, 0.3 g ai/ha",10%
same,% Herbicidal activity,"Setaria viridis (SETVI); 7 DAT, GS 14, A-1 0.2 g ai/ha",30%
same,% Herbicidal activity,"Setaria viridis (SETVI); 7 DAT, GS 14, A-1 0.3 g ai/ha",30%
same,% Herbicidal activity,"Setaria viridis (SETVI); 7 DAT, GS 14, A-1 0.4 g ai/ha",40%
same,% Herbicidal activity,"Setaria viridis (SETVI); 20 DAT, GS 14, A-1 0.3 g ai/ha",15%
same,% Herbicidal activity,Setaria viridis (SETVI); [10],15%
same,% Herbicidal activity,"Kochia scoparia (KCHSC) [5]; 6 DAT, GS 33, A-1 0.4 g ai/ha",55%
same,% Herbicidal activity,"Kochia scoparia (KCHSC) [5]; 6 DAT, GS 33, A-1 0.5 g ai/ha",65%
same,% Herbicidal activity,"Kochia scoparia (KCHSC) [5]; 6 DAT, GS 33, A-1 0.9 g ai/ha",90%
same,% Herbicidal activity,"Kochia scoparia (KCHSC) [5]; 20 DAT, GS 33, A-1 0.2 g ai/ha",15%
same,% Herbicidal activity,"Kochia scoparia (KCHSC) [5]; 20 DAT, GS 33, A-1 0.3 g ai/ha",55%
same,% Herbicidal activity,"Kochia scoparia (KCHSC) [5]; 20 DAT, GS 33, A-1 0.5 g ai/ha",55%
same,% Herbicidal activity,"Kochia scoparia (KCHSC) [5]; 20 DAT, GS 33, A-1 0.9 g ai/ha",90%
same,% Herbicidal activity,Kochia scoparia (KCHSC) [5]; [11],55%
same,% Herbicidal activity,Kochia scoparia (KCHSC) [5]; [12],55%
same,% Herbicidal activity,Sorghum bicolor (SORVU); 20 g ai/ha,93%
same,% Herbicidal activity,[6],70%
same,% Herbicidal activity,[7]; 20 g ai/ha,58%
same,% Herbicidal activity,[7]; 30 g ai/ha,73%
"C#CCN1C(=O)C(F)(F)Oc2cc(F)c(-n3c(=O)n(C)c(=S)n(C)c3=O)cc21 [B-1, trifludimoxazin]",% Herbicidal activity,[1]; B-1 1.1 g ai/ha,40%
same,% Herbicidal activity,Kochia scoparia (KCHSC) [2],68%
same,% Herbicidal activity,"[3]; 6 DAT, GS 21, B-1 0.3 g ai/ha",45%
same,% Herbicidal activity,"[3]; 20 DAT, GS 21, B-1 0.3 g ai/ha",0%
same,% Herbicidal activity,"[3]; 20 DAT, GS 21, B-1 0.9 g ai/ha",15%
same,% Herbicidal activity,[3]; [8],0%
same,% Herbicidal activity,Cyperus iria (CYPIR); [9],63%
same,% Herbicidal activity,"Cyperus iria (CYPIR); water volume 300 l/ha, burndown in fruit plantation (citrus), GS 13-14, B-1 25 g ai/ha",65%
same,% Herbicidal activity,"[4]; growth stage 13, 0.9 g ai/ha",15%
same,% Herbicidal activity,"Setaria viridis (SETVI); 7 DAT, GS 14, B-1 0.3 g ai/ha",35%
same,% Herbicidal activity,"Setaria viridis (SETVI); 7 DAT, GS 14, B-1 0.8 g ai/ha",45%
same,% Herbicidal activity,"Setaria viridis (SETVI); 7 DAT, GS 14, B-1 0.9 g ai/ha",55%
same,% Herbicidal activity,"Setaria viridis (SETVI); 7 DAT, GS 14, B-1 1 g ai/ha",60%
same,% Herbicidal activity,"Setaria viridis (SETVI); 20 DAT, GS 14, B-1 0.3 g ai/ha",10%
same,% Herbicidal activity,"Setaria viridis (SETVI); 20 DAT, GS 14, B-1 0.9 g ai/ha",70%
same,% Herbicidal activity,Setaria viridis (SETVI); [10],10%
same,% Herbicidal activity,"Kochia scoparia (KCHSC) [5]; 6 DAT, GS 33, B-1 0.3 g ai/ha",45%
same,% Herbicidal activity,"Kochia scoparia (KCHSC) [5]; 6 DAT, GS 33, B-1 0.5 g ai/ha",80%
same,% Herbicidal activity,"Kochia scoparia (KCHSC) [5]; 6 DAT, GS 33, B-1 0.8 g ai/ha",85%
same,% Herbicidal activity,"Kochia scoparia (KCHSC) [5]; 20 DAT, GS 33, B-1 0.3 g ai/ha",35%
same,% Herbicidal activity,"Kochia scoparia (KCHSC) [5]; 20 DAT, GS 33, B-1 0.9 g ai/ha",80%
same,% Herbicidal activity,"Kochia scoparia (KCHSC) [5]; 20 DAT, GS 33, B-1 1 g ai/ha",98%
same,% Herbicidal activity,Kochia scoparia (KCHSC) [5]; [11],35%
same,% Herbicidal activity,Kochia scoparia (KCHSC) [5]; [12],75%
same,% Herbicidal activity,Sorghum bicolor (SORVU); 12.5 g ai/ha,20%
same,% Herbicidal activity,[6],27%
same,% Herbicidal activity,[7]; 12.5 g ai/ha,48%
